The experiment concerns the target Platelet-derived growth factor receptor (Mus musculus). Put plainly: The cells were stimulated with PDGF (100 ng/mL) for 10 min at room temperature. Then the cell lysates were analyzed by SDS-PAGE and immunoblotting with anti-phosphotyrosine antibodies. Quantification of IC50 values was based on the intensity of the signal for autophosphorylated PDGF receptor. Titration was done using four to ei. Background: Immunoblotting shows a protein as a band on a membrane.

The IC50 is the concentration at which inhibition is half-maximal. Higher therefore signals weaker potency. For `O=C(c1cc2ccccc2[nH]1)c1cc2cc(OC(=O)C3CCC3)ccc2[nH]1` [2-(1H-indol-2-ylcarbonyl)-1H-indol-5-yl cyclobutanecarboxylate], the IC50 is 5.7 µM. For the compound `O=C(c1cc2ccccc2[nH]1)c1cc2cc(OCCCCI)ccc2[nH]1` [5-(4-Iodobutoxy-1H-2-indolyl)(1H-2-indolyl)methanone], the midpoint of inhibition (pH 7.4), the IC50, lay at 12.5 µM. As for `O=C(c1cc2ccccc2[nH]1)c1cc2cc(OCc3ccccc3)ccc2[nH]1` [5-(benzyloxy)-2-(1H-indol-2-ylcarbonyl)-1H-indole], the concentration for half-maximal inhibition (IC50) (pH 7.4) stood at 20 µM. In the case of `COc1ccc2[nH]c(C(=O)c3cc4cc(OC)ccc4[nH]3)cc2c1` [Bis(5-methoxy-1H-2-indolyl)methanone], inhibition (pH 7.4) was half-maximal at 20 µM (IC50).

These data come from BindingDB's records for doi:10.1021/jm010988n (University of Regensburg, 2002).
